Reference: patent publication EP4273147A1, “SUBSTITUTED SPIROLACTAMS, SALTS THEREOF AND THEIR USE AS HERBICIDALLY ACTIVE SUBSTANCES” (Bayer Aktiengesellschaft, priority 2022, dated 2023)

What was measured:
POAAN [1] = experiment: Herbicidal pre-emergence action (Table A7); assay type: in vivo, Poa annua; details: visual grading after ca. 3 weeks
Description: (§1) Seeds of mono- and dicotyledonous weed plants were sown in plastic pots (double sowings with one species of mono- and one species of dicotyledonous weed plants per pot), in sandy loam, and covered with soil.

KCHSC = experiment: Herbicidal pre-emergence action (Table A10); assay type: in vivo, Kochia scoparia; details: visual grading after ca. 3 weeks
Description: as §1

SETVI [2] = experiment: Herbicidal pre-emergence action (Table A5); assay type: in vivo, Setaria viridis; details: visual grading after ca. 3 weeks
Description: as §1

ECHCG [3] = experiment: Herbicidal pre-emergence action (Table A2); assay type: in vivo, Echinochloa crus-galli; details: visual grading after ca. 3 weeks
Description: as §1

MATIN = experiment: Herbicidal pre-emergence action (Table A4); assay type: in vivo, Matricaria inodora; details: application rate 320 g/ha; visual grading after ca. 3 weeks
Description: as §1

SETVI [4] = experiment: Herbicidal post-emergence action (Table B8); assay type: in vivo, Setaria viridis; details: application rate 1280 g/ha
Method: (§2) Seeds of mono- and dicotyledonous weed plants were placed in plastic pots in sandy loam soil (doubly sown with in each case one species of mono- or dicotyledonous weed plants per pot), covered with soil and cultivated in a greenhouse under controlled growth conditions. 2 to 3 weeks after sowing, the test plants were treated at the one-leaf stage. […] After the test plants had been kept in the greenhouse under optimum growth conditions for about 3 weeks, the activity of the preparations was rated visually in comparison to untreated controls. For example, 100% activity = the plants have died, 0% activity = like control plants.

DIGSA = experiment: Herbicidal pre-emergence action (Table A12); assay type: in vivo, Digitaria sanguinalis; details: visual grading after ca. 3 weeks
Description: as §1

ALOMY = experiment: Herbicidal pre-emergence action (Table A9); assay type: in vivo, Alopecurus myosuroides; details: application rate 1280 g/ha; visual grading after ca. 3 weeks
Description: as §1

LOLRI = experiment: Herbicidal pre-emergence action (Table A3); assay type: in vivo, Lolium rigidum; details: visual grading after ca. 3 weeks
Description: as §1

POAAN [5] = experiment: Herbicidal post-emergence action (Table B7); assay type: in vivo, Poa annua; details: application rate 1280 g/ha
Method: as §2

STEME = experiment: Herbicidal pre-emergence action (Table A6); assay type: in vivo, Stellaria media; details: visual grading after ca. 3 weeks
Description: as §1

VERPE = experiment: Herbicidal post-emergence action (Table B10); assay type: in vivo, Veronica persica
Method: as §2

VIOTR = experiment: Herbicidal pre-emergence action, section C (Table C12); assay type: in vivo, Viola tricolor; details: application rate 320 g/ha; visual grading after ca. 3 weeks
ECHCG [6] = experiment: Herbicidal pre-emergence action, section C (Table C6); assay type: in vivo, Echinochloa crus-galli; details: application rate 320 g/ha; visual grading after ca. 3 weeks

Row | Compound | pre-emergence activity against POAAN (POAAN [1]; application rate 320 g/ha) | pre-emergence activity against SETVI (SETVI [2]; application rate 1280 g/ha) | pre-emergence activity against ECHCG (ECHCG [3]; application rate 1280 g/ha) | post-emergence activity against POAAN (POAAN [5]) | pre-emergence activity against LOLRI (LOLRI; application rate 1280 g/ha) | pre-emergence activity against STEME (STEME; application rate 1280 g/ha) | pre-emergence activity against DIGSA (DIGSA; application rate 1280 g/ha) | further results
1 | O=C1N(Cc2ccccc2F)CCC12CCCN(Cc1cccc(F)c1F)C2=O (racemic) [I-085] | 100% | 100% | 100% | 90% | – | – | – | pre-emergence activity against KCHSC (KCHSC; application rate 1280 g/ha): 90%; pre-emergence activity against MATIN (MATIN): 90%; post-emergence activity against SETVI (SETVI [4]): 90%; pre-emergence activity against DIGSA (DIGSA; application rate 320 g/ha): 90%; pre-emergence activity against ALOMY (ALOMY): 90%; pre-emergence activity against LOLRI (LOLRI; application rate 320 g/ha): 100%; pre-emergence activity against STEME (STEME; application rate 320 g/ha): 90%
2 | Cc1ccccc1CN1CCC2(CCCN(Cc3ccccc3F)C2=O)C1=O (racemic) [I-088] | 100% | 90% | – | – | 100% | 90% | – | pre-emergence activity against KCHSC (KCHSC; application rate 320 g/ha): 90%; pre-emergence activity against DIGSA (DIGSA; application rate 320 g/ha): 90%
3 | O=C1N(Cc2ccccc2C(F)(F)F)CCCC12CCCN(Cc1ccccc1C(F)(F)F)C2=O (racemic) [I-091] | – | – | 100% | – | – | – | 100% | pre-emergence activity against POAAN (POAAN [1]; application rate 1280 g/ha): 100%; post-emergence activity against VERPE (VERPE; application rate 320 g/ha): 90%
4 | Cc1ccccc1CN1CCCC2(CCCN(Cc3ccccc3)C2=O)C1=O (racemic) [I-092] | – | – | – | 90% | 100% | – | – | pre-emergence activity against SETVI (SETVI [2]; application rate 320 g/ha): 90%; pre-emergence activity against ECHCG (ECHCG [3]; application rate 320 g/ha): 100%; post-emergence activity against VERPE (VERPE; application rate 320 g/ha): 90%
5 | O=C1N(Cc2cscc2Br)CCCC12CCCN(Cc1cscc1Br)C2=O (racemic) [I-186, 2,8-bis[(4-bromothiophen-3-yl)methyl]-2,8-diazaspiro[5.5]undecane-1,7-dione] | – | – | – | – | – | – | 90% | pre-emergence activity against KCHSC (KCHSC; application rate 1280 g/ha): 90%
6 | Cc1nc(Cl)sc1CN1CCCC2(CCCN(Cc3sc(Cl)nc3C)C2=O)C1=O (racemic) [I-201, 2,8-bis[(2-chloro-4-methyl-1,3-thiazol-5-yl)methyl]-2,8-diazaspiro[5.5]undecane-1,7-dione] | – | – | – | 90% | – | – | 90% | pest or weed control at 320 g/ha (POAAN [1]; Poa annua, pre-emergence, 504 h, application rate 320 g/ha, read-out: pre-emergence activity against POAAN): 100%; post-emergence activity against SETVI (SETVI [4]): 90%; pre-emergence activity against ALOMY (ALOMY): 100%; pest or weed control at 1280 g/ha (LOLRI; Lolium rigidum, pre-emergence, 504 h, application rate 1280 g/ha, read-out: pre-emergence activity against LOLRI): 100%
7 | O=C1N(Cc2ccccc2F)CCCC12CCCN(Cc1ccccc1F)C2=O (single isomer, unassigned) [I-056] | 100% | 100% | 100% | – | 100% | 90% | 100% | post-emergence activity against VERPE (VERPE; application rate 1280 g/ha): 90%
8 | O=C1N(Cc2cnc(Br)s2)CCCC12CCCN(Cc1cnc(Br)s1)C2=O (single isomer, unassigned; (-)) [I-206, (-)-2,8-bis[(2-bromo-1,3-thiazol-5-yl)methyl]-2,8-diazaspiro[5.5]undecane-1,7-dione] | 100% | 100% | 100% | – | 90% | 90% | 90% | –
9 | O=C1N(Cc2cc(F)c(F)cc2F)CCCC12CCCN(Cc1cc(F)c(F)cc1F)C2=O (single isomer, unassigned; (-)) [I-214, (-)-2,8-bis(2,4,5-trifluorophenylmethyl)-2,8-diazaspiro[5.5]undecane-1,7-dione] | – | – | – | – | – | – | – | pre-emergence activity against VIOTR (VIOTR): 80%; pre-emergence activity against ECHCG (ECHCG [6]): 100%
10 | O=C1N(Cc2cccs2)CCCC12CCCN(Cc1ccccc1Cl)C2=O (stereo not drawn) [I-062] | 100% | – | 100% | 90% | – | – | – | pre-emergence activity against SETVI (SETVI [2]; application rate 320 g/ha): 100%; pre-emergence activity against LOLRI (LOLRI; application rate 320 g/ha): 100%; post-emergence activity against VERPE (VERPE; application rate 1280 g/ha): 90%; pre-emergence activity against STEME (STEME; application rate 320 g/ha): 90%
11 | CC(c1ccccc1F)N1CCCC2(CCCN(C(C)c3ccccc3F)C2=O)C1=O (stereo not drawn) [I-115] | – | 100% | – | – | – | 100% | – | pre-emergence activity against POAAN (POAAN [1]; application rate 1280 g/ha): 90%; post-emergence activity against VERPE (VERPE; application rate 1280 g/ha): 90%
